Assay results published in US12630534B2 (TAKEDA PHARMACEUTICAL COMPANY LIMITED, priority 2020, dated 2026).

Assays:
human GPR139 [1] = target: T1, human GPR139 (Homo sapiens, UniProt Q6DWJ6); test: Inhibition rate of the amount of IP1 in GPR139-expressed CHO cells (Test Example 1, IP-ONE HTRF assay); type: cell-based
T1 construct: expressed in transfected cells; host or cells: CHO-TREx (Life Technologies) cells, expression induced with doxycycline
T1 sequence (Q6DWJ6 1-353): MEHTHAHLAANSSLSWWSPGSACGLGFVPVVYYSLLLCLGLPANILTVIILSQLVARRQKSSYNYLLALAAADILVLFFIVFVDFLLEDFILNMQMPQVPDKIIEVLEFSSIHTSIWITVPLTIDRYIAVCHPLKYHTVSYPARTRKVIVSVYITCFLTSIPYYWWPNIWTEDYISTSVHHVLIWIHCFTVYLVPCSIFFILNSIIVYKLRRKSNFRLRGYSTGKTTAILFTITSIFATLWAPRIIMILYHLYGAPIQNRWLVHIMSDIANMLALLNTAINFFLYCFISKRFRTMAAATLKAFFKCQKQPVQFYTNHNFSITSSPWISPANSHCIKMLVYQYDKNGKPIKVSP
Experimental: Measurement of the Inhibition Rate of the Amount of IP1 in 30 μM of the Compound of Example 2 in GPR139-Expressed CHO Cells
Changes in the amount of IP1 in GPR139-expressed CHO cells were measured in order to evaluate the activity of the compound via GPR139. GPR139 is a Gq-coupled receptor which varies intracellular calcium (Liu C et al., Mol Pharmacol. 2015 November; 88(5):911-25), so the amount of IP1, which is a stable metabolite of the second messenger IP3, changes due to activity regulation of GPR139. GPR139 is considered to be […] when expressed recombinantly in mammal cells, so a compound having a GPR139 receptor inverse agonist action is expected to reduce the amount of IP1 production.
The measurement of IP1 was made using an IP-ONE HTFR assay kit (cis-bio) and CHO-TREx (Life Technologies) cells stably transfected with GPR139. The CHO-TREx cells expressed human GPR139 with a tetracycline-inducing element. […]
The compound was diluted with the stimulation buffer, and 4 μL was added to a 384-well white assay plate (Greiner). […] After the fluorescence strengths of two wavelengths were measured by the HTRF settings of Envision (PerkinElmer), the value of Ratio={(Signal 665 nm)/(Signal 615 nm)}×10000 was calculated.

human GPR139 [2] = target: T1, human GPR139; test: Inhibition rate of the amount of IP1 in GPR139-expressed CHO cells (inverse agonist assay, Test Example 2); type: cell-based; conditions: CHO, relative value, inhibition rate of Example Compound 2 in Test Example 1 defined as 100%
In short: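 CHO-TREx cells with doxycycline-inducible human GPR139 (2 μg/mL, 17 h) were incubated with compound at 2000 cells/well for 40 min at 37° C. IP1 quantified by HTRF (665/615 nm ratio ×10000); inhibition rate expressed relative to a reference compound defined as […].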

CCn1cc(Cn2ccn(-c3cc(N4CCO[C@H](C)C4)cc(C(F)(F)F)c3F)c2=O)cn1 [Example 2, 1-[(1-Ethyl-1H-pyrazole-4-yl)methyl]-3-{2-fluoro-5-[(2R)-2-methylmorpholine-4-yl]-3-(trifluoromethyl)phenyl}-1,3-dihydro-2H-imidazole-2-one]
GPR139 receptor inverse agonist action (result in words) (human GPR139 [1]): exhibits GPR139 receptor inverse agonist action | inhibition at 30 µM (human GPR139 [2]): 100%
